{"source": "patent US9861623B1", "about": "“Combination treatment of RAS-positive diseases with PDE-δ inhibitor and direct autophagy inhibitor” (Macau University of Science and Technology, priority 2016, dated 2018)", "assay_type_in_all_cases": "cell-based", "key": {"[1]": {"tested_on": "A549 cells", "assay": "GFP-LC3 puncta formation in transfected A549 cells", "settings": "24 h", "method": "GFP-LC3 expression vector was utilized to monitor and quantify the induction of autophagy following the 3rd autophagy guidelines. A549 cells were seeded at a density of 2×10^5 cells/well in 6-well plates, according to the manufacturers instructions. Lipofectamine™ 2000 was incubated with GFP-LC3 in Opti-MEM reduced serum medium for 20 min at room temperature. The mixture was added drop by drop to the cells and then incubated for 4-6 h. The DNA/Lipofectamine™ 2000 medium was replaced by fresh medium and cultured for another 24 h. […] The percentage of autophagic cells was calculated by counting the number of the cells showing increased punctuate pattern of LC3 fluorescence (≧10 dots/cell) in immunofluorescence positive cells over the total number of cells in the same field. A minimum of 300 cells from randomly selected fields were scored."}, "[2]": {"tested_on": "LC3-II", "assay": "Western blot of LC3-I to LC3-II conversion (autophagy)", "settings": "24 h; for accumulation of LC3-II under deltarasin: A549 cells", "method": "(§1) Cells were washed twice with cold PBS and then lysed in RIPA lysis buffer containing protease and phosphatase inhibitors. Protein concentration of the cell lysate was measured by using the Bio-Rad protein assay kit (Bio-Rad, Philadelphia, Pa., USA). After equalizing the protein concentrations of the samples, 5×laemmli buffer was added and boiled at 100° C. for 5 min. Equal amounts of protein (20-40 μg per lane) were separated with a 10% SDS-PAGE gel, then the separated proteins were transferred to a nitrocellulose (NC) membrane, which was then exposed to 5% non-fat dry milk in TBS contains 0.1% Tween 20 (0.1% TBST) for 1 h at room temperature with constant agitation, followed by overnight incubation at 4° C. with primary anti-bodies. After washing 3 times with TBST, the membranes were incubated with secondary rabbit or mouse fluorescent antibodies, then the signal intensity of the membranes was detected by anLI-COR Odessy scanner (Belfast, Me., USA). All primary antibodies were diluted in 1:1000, while their recommended secondary antibodies were diluted in 1:10000."}, "[3]": {"tested_on": "A549 cells", "assay": "Cell viability assay (MTT)", "method": "[…] At the end of the incubation, 10 μl of MTT (5 mg/mL, Sigma) were added into each well for 4 h at 37° C., then the crystals were dissolved in 100 μl of the resolved solution (10% SDS and 0.1 mM HCL). The absorbance at 570 nm was measured using a microplate reader (Tecan, Morrisville, N.C., USA). The cell viability was calculated relative to untreated controls. At least 3 independent experiments were performed and the data were plotted as curve graph."}, "[4]": {"tested_on": "PARP, Bcl-2 and Bax", "assay": "Western blot of apoptosis-related proteins in A549 cells", "settings": "24 h", "method": "as §1"}, "[5]": {"tested_on": "intracellular ROS", "assay": "Detection of ROS production by DCF-DA flow cytometry", "settings": "PANC-1, A549 and H358 cells, 24 h", "method": "Intracellular ROS generation was measured by DCF-DA fluorescence probe using flow cytometry. Briefly, A549, H358 and PANC-1 cells (1×10^5 cells/well) were seeded in a six-well plate, and different concentrations of deltarasin were added into the wells. After treatment with deltarasin for 24 h, the treated cells were detached with trypsin, and washed twice with PBS and incubated with 10 μM DCF-DA for 30 min at 37° C. in the dark, the fluorescence-stained cells were then analyzed using a FACS BD Aria III flow cytometer."}, "[6]": {"tested_on": "A549 cells", "assay": "Cell apoptosis assay, Annexin V/PI flow cytometry", "settings": "24 h", "method": "(§2) Apoptosis was measured using the Annexin V-FITC apoptosis detection kit (BD Biosciences, San Jose, Calif., USA), according to the manufacturer protocol. Briefly, A549, H358 and PANC-1 cells (1.0×10^5 cells/well) were allowed to attach in a six-well plate for 24 h, cells were treated with deltarasin for 24 h. Subsequently, cells were trypsinized, washed with PBS and stained with 100 μL binding buffer containing 2 μl Annexin-V FITC (2.5 μg/ml) and 5 μl propidium iodide (PI) (50 μg/ml) incubated in the dark at room temperature for 15 min, before further addition of 400 μl of 1×Annexin-binding buffer. The stained cells were analyzed quantitatively using a BD Aria III Flow Cytometer (BD Biosciences, San Jose, Calif., USA). Data were analyzed by Flow Jo software."}, "[7]": {"tested_on": "A549 cells", "assay": "Colony formation assay", "settings": "10 days", "method": "Detailed procedures of colony formation assay were described previously (Franken, N. A., et al., Nature protocols, 2006, 1(5):2315-2319). A549 cells were seeded in a six-well plate at a density of 500 cells per well. The cells were exposed to various concentrations of deltarasin. After 10-14 days, the colonies were fixed with 4% paraformaldehyde and stained with 0.5% (0.5% w/v) crystal violet solutions, the number of colonies were counted under a dissecting microscope."}, "[8]": {"tested_on": "KRAS", "assay": "Immunofluorescence of KRAS cellular localization in A549 cells", "settings": "5 μM, 24 h", "method": "Cells were plated on 6-well plates and grown overnight, then treated with 5 μM deltarasin or 5 mM 3-MA for 24 h. Cells were fixed with 4% paraformaldehyde for 20 min at 4° C., followed by permeabilized with 0.2% Triton X-100 in PBS for 10 min. Subsequently, the cells were blocked with 2% BSA/PBS for 30 min at room temperature, then incubated with KRAS antibody (1:100) overnight at 4° C., followed by the secondary antibody (1:500) for 1 h at room temperature. The nuclear was stained with 1 μg/ml Hoechst staining for 10 min in the dark. The cells were visualized using fluorescent microscopy."}, "[9]": {"tested_on": "AMPK-mTOR signaling pathway", "assay": "Western blot of AMPK-mTOR pathway in A549 cells", "settings": "0-5 μM, 24 h", "method": "as §1"}, "[10]": {"tested_on": "c-Raf, Akt and ERK phosphorylation", "assay": "Western blot of KRAS downstream signalling", "settings": "PANC-1, A549 and H358 cells, 24 h, 0-5 μM", "method": "as §1"}, "[11]": {"tested_on": "H358 cells", "assay": "Cell viability assay (MTT)", "settings": "Homo sapiens, NCI-H358, 72 h", "method": "(§3) 3000 cells were seeded at 96-well plates and cultured overnight for cell adhesion, and treated with DMSO or various concentrations of deltarasin for 72 h. At the end of the incubation, 10 μl of MTT (5 mg/mL, Sigma) were added into each well for 4 h at 37° C., then the crystals were dissolved in 100 μl of the resolved solution (10% SDS and 0.1 mM HCL). The absorbance at 570 nm was measured using a microplate reader (Tecan, Morrisville, N.C., USA). The cell viability was calculated relative to untreated controls. At least 3 independent experiments were performed and the data were plotted as curve graph."}, "[12]": {"tested_on": "PANC-1 cells", "assay": "Cell viability assay (MTT)", "settings": "Homo sapiens, 72 h", "method": "as §3"}, "[13]": {"tested_on": "H358 cells", "assay": "Cell apoptosis assay, Annexin V/PI flow cytometry", "settings": "24 h, deltarasin 5 μM, 3-MA 5 mM where co-treated", "method": "as §2"}, "[14]": {"tested_on": "GTP-RAS", "assay": "RAS activation assay (Raf1 RBD pull-down) in A549 cells", "settings": "5 μM, 24 h", "method": "A549 cells were treated with deltarasin for 24 h at 5 μM. Cells were lysed in lysis buffer, adjusted the volume of each sample to 1 ml with 1×Assay Lysis Buffer. Then 40 μl of the Raf1 RBD Agarose bead slurry was swiftly added to each samples. The samples were incubated at 4° C. for 1 h with gentle agitation. The beads were washed 3 times with cold lysis buffer, and bounded protein was resuspended in 40 μl of 2×reducing SDS-PAGE sample buffer and heated at 100° C. for 5 min. The level of […] was detected after SDS-PAGE followed by Western blot."}}, "data": [{"smiles": "Cn1cnc(N)c2ncnc1-2", "note": "[3-MA, 3-methyladenine]", "values": [{"measurement": "number of GFP-LC3 puncta under deltarasin", "setting": "[1]; 5 μM deltarasin plus 5 mM 3-MA", "value": "significantly diminished"}, {"measurement": "accumulation of LC3-II induced by deltarasin", "setting": "[2]; PANC-1, A549 and H358 cells, 5 μM deltarasin plus 5 mM 3-MA", "value": "suppressed"}]}, {"smiles": "CC(=O)N[C@@H](CS)C(=O)O", "note": "[NAC, N-acetyl cysteine]", "values": [{"measurement": "deltarasin-induced cell cytotoxicity", "setting": "[3]; 5 μM deltarasin plus 5 μM NAC, 24 h", "value": "decreases"}, {"measurement": "PARP cleavage under deltarasin", "setting": "[4]; 5 μM deltarasin plus 5 μM NAC", "value": "suppressed"}, {"measurement": "accumulation of LC3-II under deltarasin", "setting": "[2]; 5 μM deltarasin plus 5 μM NAC", "value": "suppressed"}, {"measurement": "high level of ROS induced by deltarasin", "setting": "[5]; 5 μM deltarasin plus 5 μM NAC", "value": "suppressed"}, {"measurement": "deltarasin-induced apoptosis", "setting": "[6]; 5 μM deltarasin plus 5 μM NAC", "value": "decreases"}]}, {"smiles": "c1cc(-c2cnn3cc(-c4ccc(OCCN5CCCCC5)cc4)cnc23)ccn1", "note": "[compound C]", "values": [{"measurement": "accumulation of LC3-II under deltarasin", "setting": "[2]; 5 μM deltarasin plus 5 μM Compound C", "value": "suppressed"}]}, {"smiles": "c1ccc(Cn2c(-c3ccc(OC[C@H](C4CCNCC4)n4c(-c5ccccc5)nc5ccccc54)cc3)nc3ccccc32)cc1", "note": "[deltarasin]", "values": [{"measurement": "IC50", "setting": "[3]; Homo sapiens, 72 h, MTT", "value": "5.29 ± 0.7", "unit": "µM"}, {"measurement": "colony formation capacity", "setting": "[7]; 0-5 μM", "value": "significantly inhibits"}, {"measurement": "colonies formed", "setting": "[7]; 5 μM", "value": "no visible colonies"}, {"measurement": "GFP-LC3 puncta formation", "setting": "[1]; 5 μM, vs untreated control", "value": "increased percentage"}, {"measurement": "KRAS cellular localization", "setting": "[8]", "value": "reduced the amount of KRAS protein at the plasma membrane and displaced KRAS into the cytoplasm"}, {"measurement": "cleavage of PARP", "setting": "[4]; 5 μM", "value": "induction of the cleavage of PARP"}, {"measurement": "expression of anti-apoptotic protein Bcl-2", "setting": "[4]", "value": "reduction"}, {"measurement": "expression of pro-apoptotic protein Bax", "setting": "[4]", "value": "increase"}, {"measurement": "mTOR and p70S6K phosphorylation", "setting": "[9]", "value": "suppressed"}, {"measurement": "p-AMPK level", "setting": "[9]", "value": "up-regulation"}, {"measurement": "conversion of LC3-I to LC3-II", "setting": "[2]; PANC-1, A549 and H358 cells, 0-5 μM, dose-dependent", "value": "distinctly facilitated"}, {"measurement": "c-Raf, Akt and ERK phosphorylation", "setting": "[10]", "value": "inhibited"}, {"measurement": "intracellular ROS levels", "setting": "[5]; 5 μM", "value": "significantly elevated"}, {"measurement": "IC50", "setting": "[11]", "value": "4.21 ± 0.72", "unit": "µM"}, {"measurement": "IC50", "setting": "[12]", "value": "3.86 ± 0.96", "unit": "µM"}, {"measurement": "cell apoptosis", "setting": "[13]", "value": 15.99, "unit": "%"}, {"measurement": "induction of apoptosis vs untreated cells", "setting": "[6]; 5 μM", "value": "significantly induced apoptosis"}, {"measurement": "cell apoptosis", "setting": "[6]; deltarasin 5 μM, 3-MA 5 mM where co-treated", "value": 11.25, "unit": "%"}, {"measurement": "binding of GTP to c-Raf-1 binding domain (KRAS-GTP level)", "setting": "[14]", "value": "significantly inhibited"}]}]}
